Measurements reported in ChEMBL document CHEMBL1201862, “PubChem BioAssay data set” (2004).
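Values below derive from 48-hour exposures of cells grown in 96-well plates, with endpoints linearly interpolated between the two concentrations bracketing the appropriate inhibition level. GI50 = concentration required for 50% inhibition of growth.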 Calls of active or inactive are those of the source. No stated cut-off is given here; in the data, active = GI50 up to about 1.1 µM and inactive = higher.

What was measured:
Assay in all cases: growth of human tumour cells (NCI), 48 h
HOP-92 = tested on: HOP-92
HOP-18 = tested on: HOP-18
SF-268 = tested on: SF-268
SN12C = tested on: SN12C
UACC-62 = tested on: UACC-62
RXF 631 = tested on: RXF 631
MDA-N = tested on: MDA-N
HT-29 = tested on: HT-29
LXFL 529 = tested on: LXFL 529
XF498 = tested on: XF498
KM-20L2 = tested on: KM-20L2
MOLT-4 = tested on: MOLT-4
OVCAR-4 = tested on: OVCAR-4
HCC 2998 = tested on: HCC 2998
SNB-75 = tested on: SNB-75
M14 = tested on: M14
Hs-578T = tested on: Hs-578T
ACHN = tested on: ACHN
MDA-MB-435 = tested on: MDA-MB-435
NCI-H460 = tested on: NCI-H460
SW-620 = tested on: SW-620
T47D = tested on: T47D
HCT-116 = tested on: HCT-116
HOP-62 = tested on: HOP-62
MDA-MB-231 = tested on: MDA-MB-231
EKVX = tested on: EKVX
KM12 = tested on: KM12
OVCAR-3 = tested on: OVCAR-3
SF-295 = tested on: SF-295
LOX IMVI = tested on: LOX IMVI
SR = tested on: SR
BT-549 = tested on: BT-549
OVCAR-5 = tested on: OVCAR-5
MCF7 = tested on: MCF7
RXF 393 = tested on: RXF 393
CCRF-CEM = tested on: CCRF-CEM
PC-3 = tested on: PC-3
K562 = tested on: K562
NCI-H522 = tested on: NCI-H522
CAKI-1 = tested on: CAKI-1
SK-MEL-5 = tested on: SK-MEL-5
UACC-257 = tested on: UACC-257
A498 = tested on: A498
SK-MEL-28 = tested on: SK-MEL-28
NCI-H226 = tested on: NCI-H226
U-251 = tested on: U-251
Malme-3M = tested on: Malme-3M
DU-145 = tested on: DU-145
RPMI-8226 = tested on: RPMI-8226
NCI-H23 = tested on: NCI-H23
SNB-78 = tested on: SNB-78
SK-MEL-2 = tested on: SK-MEL-2
COLO 205 = tested on: COLO 205
HCT-15 = tested on: HCT-15
M19-MEL = tested on: M19-MEL
HL-60 = tested on: HL-60
IGROV-1 = tested on: IGROV-1
DLD-1 = tested on: DLD-1
SK-OV-3 = tested on: SK-OV-3
786-0 = tested on: 786-0
SF-539 = tested on: SF-539
OVCAR-8 = tested on: OVCAR-8
SNB-19 = tested on: SNB-19
NCI/ADR-RES = tested on: NCI/ADR-RES
DMS-114 = tested on: DMS-114
TK-10 = tested on: TK-10
UO-31 = tested on: UO-31
A549 = tested on: A549
DMS-273 = tested on: DMS-273

Measured: GI50

COc1ccc2c(c1)[n+]([O-])c(/C(C)=N/NC(N)=S)c(C)[n+]2[O-]
inactive: HOP-92 > 85.9 µM | HOP-18 95.1 µM | SF-268 46.3 µM | SN12C 39.4 µM | UACC-62 44.8 µM | RXF 631 44.4 µM | MDA-N 51.3 µM | HT-29 52.1 µM | LXFL 529 51.6 µM | XF498 39 µM | KM-20L2 39.4 µM | MOLT-4 17.8 µM | OVCAR-4 58.9 µM | HCC 2998 20.5 µM | SNB-75 79.4 µM | M14 37.6 µM | Hs-578T > 100 µM | ACHN 38.5 µM | MDA-MB-435 78.3 µM | NCI-H460 27.8 µM | SW-620 50.4 µM | T47D 49.2 µM | HCT-116 39.9 µM | HOP-62 75.3 µM | MDA-MB-231 89.7 µM | EKVX 44 µM | KM12 > 85.9 µM | OVCAR-3 33.9 µM | SF-295 63.1 µM | LOX IMVI 39.9 µM | SR 2 µM | BT-549 90.4 µM | OVCAR-5 > 88.5 µM | MCF7 41.4 µM | RXF 393 > 72.9 µM | CCRF-CEM 27.6 µM | PC-3 > 100 µM | K562 41.5 µM | NCI-H522 31 µM | CAKI-1 70.5 µM | SK-MEL-5 41.2 µM | UACC-257 > 60.3 µM | A498 > 100 µM | SK-MEL-28 > 56.2 µM | NCI-H226 > 61.7 µM | U-251 44.4 µM | Malme-3M 75.7 µM | DU-145 44.2 µM | RPMI-8226 57 µM | NCI-H23 > 67.9 µM | SNB-78 > 100 µM | SK-MEL-2 > 96.4 µM | COLO 205 38.8 µM | M19-MEL 86.9 µM | HL-60 1.5 µM | IGROV-1 > 88.1 µM | DLD-1 57.9 µM | SK-OV-3 > 100 µM | 786-0 43.6 µM | SF-539 > 59.8 µM | OVCAR-8 46.3 µM | SNB-19 > 100 µM | NCI/ADR-RES 28.8 µM | DMS-114 36 µM | TK-10 > 58.9 µM | UO-31 49.7 µM | A549 53.7 µM
45.6 µM: HCT-15

O=C(CC(=O)C1=CNc2ccccc2S1)C(=O)Nc1ccc(Cl)cc1
inactive: HOP-92 > 50 µM | SF-268 > 50 µM | SN12C > 50 µM | UACC-62 > 50 µM | RXF 631 > 50 µM | HT-29 > 50 µM | LXFL 529 > 50 µM | XF498 > 50 µM | KM-20L2 > 50 µM | MOLT-4 > 50 µM | OVCAR-4 > 50 µM | HCC 2998 > 50 µM | SNB-75 > 50 µM | M14 > 50 µM | ACHN > 50 µM | NCI-H460 > 50 µM | SW-620 > 50 µM | HCT-116 > 50 µM | HOP-62 > 50 µM | EKVX > 50 µM | KM12 > 50 µM | OVCAR-3 > 50 µM | SF-295 > 50 µM | LOX IMVI > 50 µM | OVCAR-5 > 50 µM | RXF 393 > 50 µM | CCRF-CEM > 50 µM | K562 > 24.3 µM | NCI-H522 > 50 µM | CAKI-1 > 50 µM | SK-MEL-5 > 50 µM | UACC-257 > 50 µM | A498 > 50 µM | SK-MEL-28 > 50 µM | NCI-H226 49.4 µM | U-251 > 50 µM | Malme-3M > 50 µM | RPMI-8226 > 50 µM | NCI-H23 > 50 µM | SNB-78 > 50 µM | SK-MEL-2 > 50 µM | DMS-273 > 50 µM | COLO 205 > 50 µM | M19-MEL > 50 µM | HL-60 > 34 µM | IGROV-1 > 50 µM | DLD-1 > 50 µM | SK-OV-3 > 50 µM | 786-0 > 50 µM | SF-539 > 50 µM | OVCAR-8 > 50 µM | SNB-19 > 50 µM | DMS-114 > 50 µM | TK-10 > 50 µM | UO-31 > 50 µM | A549 > 50 µM
> 50 µM: HCT-15
